Patent US7550451B2, “Progesterone receptor modulators with increased antigonadotropic activity for female birth control and hormone replacement therapy” (Bayer Schering Pharma AG, priority 2002, dated 2009)

Columns and labels:
[1] = molecular target: T1, Progesterone receptor (Oryctolagus cuniculus, UniProt P06186); assay: Receptor binding affinity, progesterone receptor (competitive binding, 3H-ORG 2058); conditions: Progesterone = 100%; uterus cytosol of estradiol-primed rabbit
T1 construct: Uterus cytosol of the estradiol-primed rabbit; from tissue; host or cells: uterus cytosol of estradiol-primed rabbit
T1 sequence (P06186 1-930): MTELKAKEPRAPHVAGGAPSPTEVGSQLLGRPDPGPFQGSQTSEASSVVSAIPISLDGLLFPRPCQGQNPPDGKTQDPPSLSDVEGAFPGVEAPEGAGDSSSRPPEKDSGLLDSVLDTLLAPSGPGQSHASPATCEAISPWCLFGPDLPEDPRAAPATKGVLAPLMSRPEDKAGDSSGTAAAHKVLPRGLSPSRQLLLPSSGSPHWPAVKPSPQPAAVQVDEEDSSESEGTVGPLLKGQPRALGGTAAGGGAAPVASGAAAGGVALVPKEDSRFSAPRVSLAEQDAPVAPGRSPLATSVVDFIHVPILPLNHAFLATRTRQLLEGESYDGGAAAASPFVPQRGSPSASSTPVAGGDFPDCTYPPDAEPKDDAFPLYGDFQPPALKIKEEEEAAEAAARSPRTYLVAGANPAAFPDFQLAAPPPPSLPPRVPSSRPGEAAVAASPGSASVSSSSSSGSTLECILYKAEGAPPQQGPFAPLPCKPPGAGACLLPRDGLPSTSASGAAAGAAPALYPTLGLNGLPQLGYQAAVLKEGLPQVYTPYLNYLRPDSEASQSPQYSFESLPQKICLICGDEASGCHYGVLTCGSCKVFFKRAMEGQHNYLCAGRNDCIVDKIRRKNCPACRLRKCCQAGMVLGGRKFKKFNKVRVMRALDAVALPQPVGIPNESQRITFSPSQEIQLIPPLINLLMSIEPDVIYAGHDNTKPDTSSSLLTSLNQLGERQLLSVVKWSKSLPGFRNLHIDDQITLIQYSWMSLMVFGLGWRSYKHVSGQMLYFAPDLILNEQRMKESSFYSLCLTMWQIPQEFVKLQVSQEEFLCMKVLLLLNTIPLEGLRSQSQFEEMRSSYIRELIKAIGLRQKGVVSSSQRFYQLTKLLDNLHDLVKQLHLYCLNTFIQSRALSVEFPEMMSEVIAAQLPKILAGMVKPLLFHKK
Procedure: (§1) The receptor binding affinity was determined by competitive binding of a specifically binding ^3H-labeled hormone (tracer) and the compound to be tested on receptors in the cytosol from animal target organs. In this case, receptor saturation and reaction equilibrium were sought.
(§2) The tracers and increasing concentrations of the compound to be tested (competitor) were co-incubated with the receptor-containing cytosol fraction at 0-4° C. over 18 hours. After separation of the unbonded tracer with carbon-dextran suspension, the receptor-bonded tracer portion was measured for each concentration, and the IC50 was determined from the concentration sequence. As a quotient of the IC50 values of the reference substance and the compound to be tested (×100%), the relative molar binding affinity (RBA) was calculated (RBA of the reference substance=100%).
Uterus cytosol of the estradiol-primed rabbit; homogenized in TED buffer (20 mmol of Tris/HCl, pH 7.4; 1 mmol of ethylenediamine tetraacetate, 2 mmol of dithiothreitol) with 250 mmol of saccharose; stored at −30° C. Tracer: ^3H-ORG 2058, 5 nmol; reference substance: progesterone.

[2] = molecular target: T2, Glucocorticoid receptor (Rattus norvegicus, UniProt P06536); assay: Receptor binding affinity, glucocorticoid receptor (competitive binding, 3H-dexamethasone); conditions: Dexamethasone = 100%; thymus cytosol of adrenalectomized rat
T2 construct: Thymus cytosol of the adrenalectomized rat; from tissue; host or cells: thymus cytosol of adrenalectomized rat
T2 sequence (P06536 1-795): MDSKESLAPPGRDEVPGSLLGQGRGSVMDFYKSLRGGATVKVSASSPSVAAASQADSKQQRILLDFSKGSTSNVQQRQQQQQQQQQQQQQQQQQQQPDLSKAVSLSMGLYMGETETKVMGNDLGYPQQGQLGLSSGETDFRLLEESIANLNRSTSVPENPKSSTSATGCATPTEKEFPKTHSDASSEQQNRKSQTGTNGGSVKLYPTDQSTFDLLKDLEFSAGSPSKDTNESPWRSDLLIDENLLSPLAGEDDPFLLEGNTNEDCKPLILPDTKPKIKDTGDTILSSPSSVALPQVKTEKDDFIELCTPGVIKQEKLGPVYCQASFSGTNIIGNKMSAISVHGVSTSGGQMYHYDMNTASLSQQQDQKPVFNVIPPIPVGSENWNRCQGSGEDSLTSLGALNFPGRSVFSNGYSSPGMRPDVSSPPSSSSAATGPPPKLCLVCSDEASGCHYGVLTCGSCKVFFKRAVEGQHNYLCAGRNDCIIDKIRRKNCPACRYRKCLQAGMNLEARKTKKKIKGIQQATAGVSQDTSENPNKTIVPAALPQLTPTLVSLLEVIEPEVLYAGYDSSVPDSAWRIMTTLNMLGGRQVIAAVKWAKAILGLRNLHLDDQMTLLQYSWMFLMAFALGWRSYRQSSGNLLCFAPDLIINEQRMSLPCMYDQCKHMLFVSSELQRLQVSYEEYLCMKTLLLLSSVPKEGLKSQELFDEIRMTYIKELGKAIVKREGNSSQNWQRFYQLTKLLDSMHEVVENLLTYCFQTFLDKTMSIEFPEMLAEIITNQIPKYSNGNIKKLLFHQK
Procedure: as §1, §2
Thymus cytosol of the adrenalectomized rat, thymi stored at −30° C.; buffer: TED. Tracer: ^3H-Dexamethasone, 20 nmol; reference substance: dexamethasone.

[3] = molecular target: T3, Androgen receptor (Rattus norvegicus, UniProt P15207); assay: Receptor binding affinity, androgen receptor (competitive binding, 3H-metribolone); conditions: prostate cytosol of castrated rat; for AR relative molar binding affinity (RBA) a) against RU 1881: reference RU 1881 (metribolone); for AR relative molar binding affinity (RBA) b) against dihydrotestosterone (DHT): reference dihydrotestosterone
T3 construct: Prostate cytosol of the castrated rat; from tissue; host or cells: prostate cytosol of castrated rat
T3 sequence (P15207 1-902): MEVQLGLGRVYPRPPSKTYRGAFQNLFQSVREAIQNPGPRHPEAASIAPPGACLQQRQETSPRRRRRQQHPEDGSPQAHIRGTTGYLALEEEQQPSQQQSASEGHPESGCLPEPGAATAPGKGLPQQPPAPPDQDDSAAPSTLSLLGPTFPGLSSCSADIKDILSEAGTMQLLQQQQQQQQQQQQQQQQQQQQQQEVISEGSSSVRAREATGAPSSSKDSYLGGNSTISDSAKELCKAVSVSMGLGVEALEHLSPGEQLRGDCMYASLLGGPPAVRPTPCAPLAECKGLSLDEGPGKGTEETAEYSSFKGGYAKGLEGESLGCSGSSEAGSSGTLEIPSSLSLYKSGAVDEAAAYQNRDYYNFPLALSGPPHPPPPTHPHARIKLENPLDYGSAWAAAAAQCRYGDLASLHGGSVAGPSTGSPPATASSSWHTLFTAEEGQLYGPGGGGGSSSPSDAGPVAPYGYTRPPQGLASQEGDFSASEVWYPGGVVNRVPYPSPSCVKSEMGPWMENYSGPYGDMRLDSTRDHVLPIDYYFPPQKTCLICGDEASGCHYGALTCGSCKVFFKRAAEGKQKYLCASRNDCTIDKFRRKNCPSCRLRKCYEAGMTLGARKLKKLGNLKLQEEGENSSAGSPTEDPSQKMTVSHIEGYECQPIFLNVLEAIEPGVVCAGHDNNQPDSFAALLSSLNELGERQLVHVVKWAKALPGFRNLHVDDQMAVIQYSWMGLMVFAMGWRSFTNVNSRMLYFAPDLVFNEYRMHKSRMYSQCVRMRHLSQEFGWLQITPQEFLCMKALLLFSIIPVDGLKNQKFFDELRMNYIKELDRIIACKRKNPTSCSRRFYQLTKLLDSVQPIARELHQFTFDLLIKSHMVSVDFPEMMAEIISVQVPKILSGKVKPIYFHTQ
Procedure: as §1, §2
Prostate cytosol of the castrated rat; prostates stored at −30° C.; buffer: TED with 10% glycerol as well as 2 μmol of triamcinolone acetonide. Tracer: ^3H-metribolone 4 nmol; reference substances: metribolone (RU 1881) or 5α-dihydrotestosterone.

[4] = test system: adult female rats; assay: Nidation-inhibiting test (antifertile effects in the perinidation phase); type: in vivo; conditions: day 5-7 of pregnancy, rat
Procedure: The determination of the progesterone-antagonistic activities was carried out on adult female rats in the nidation-inhibiting test. The principle of the test is described as follows: progesterone preserves pregnancy in all stages. An early-abortive action can accordingly be expected from competitive progesterone antagonists. Female rats (Schoe strain: WIST Tierzucht GmbH Schönwalde) with a weight of 180-200 g were subjected daily to a cycle control and paired up in proestrus. The beginning of pregnancy was determined by detecting sperm in the vaginal smear on the same day (=day 1 of pregnancy=d1 p.c.). From the 5th-7th day of pregnancy, the test substances were injected subcutaneously daily. On the 9th day, vaginal smears were taken, then the animals were autopsied and the uteri were prepared. The degeneration of implants and pathological, hemorrhagic and otherwise abnormal nidation sites were counted as abortions and are shown in Table 2.

Molecule	PR relative molar binding affinity (RBA) [1] [%]	GR relative molar binding affinity (RBA) [2] [%]	AR relative molar binding affinity (RBA) a) against RU 1881 [3]	AR relative molar binding affinity (RBA) b) against dihydrotestosterone (DHT) [3]	Rate of Animals with Complete Inhibition of Nidation ([4]; 1.0 mg/animal/day s.c.)	Rate of Animals with Complete Inhibition of Nidation ([4]; 0.3 mg/animal/day s.c.)	Rate of Animals with Complete Inhibition of Nidation ([4]; 3.0 mg/animal/day s.c.)
CO[C@H]1CC[C@H]2[C@@H]3CCC4=CC(=O)CCC4=C3[C@@H](c3ccc(/C=N/O)cc3)C[C@]12C [Example 5, 4-(17β-Methoxy-3-oxoestra-4,9-dien-11β-yl)benzaldehyde-1(E)-oxime]	159	14	a) 21%	b) 32%	0/4	–	–
CC#C[C@]1(O)CC[C@H]2[C@@H]3CCC4=CC(=O)CCC4=C3[C@@H](c3ccc(N(C)C)cc3)C[C@@]21C [RU 38 486, reference compound]	–	–	–	–	2/5	0/5	5/5
CC1(O)CCC2C3CCC4=C(Br)C(=O)CCC4=C3C(c3ccc(C=NO)cc3)CC21C (stereo not drawn) [Example 6, 4-(4′-Bromo-17β-hydroxy-17α-methyl-3-oxoestra-4,9-dien-11β-yl)benzaldehyde-1(E)-oxime]	106	0.76	a) 14%	b) 22%	5/5	–	–
CCNC(=O)O/N=C/c1ccc([C@H]2C[C@@]3(C)[C@@H](CC[C@]3(C)O)[C@@H]3CCC4=CC(=O)CCC4=C32)cc1 [Example 9, 4-[17β-Hydroxy-17α-methyl-3-oxoestra-4,9-dien-11β-yl]benzaldehyde-1-(E)-[O-(ethylamino)-carbonyl]oxime]	161	25	a) 15%	b) 23%	–	–	–
4-(4′-Bromo-17β-methoxy-3-oxoestra-4,9-dien-11β-yl)benzaldehyde-1(E)-oxime [Example 7]	110	0.69	a) 8.7%	b) 13.2%	–	–	–
CC12CC(c3ccc(C=NO)cc3)C3=C4CCC(=O)C(Br)=C4CCC3C1CCC2(O)C(F)(F)F (stereo not drawn) [Example 8, 4-(4′-Bromo-17β-hydroxy-17α-trifluoromethyl-3-oxoestra-4,9-dien-11β-yl)benzaldehyde-1(E)-oxime]	87	1.8	a) 7.8%	b) 11.8%	–	–	–
CCO[C@H]1CC[C@H]2[C@@H]3CCC4=CC(=O)CCC4=C3[C@@H](c3ccc(/C=N/O)cc3)C[C@]12C [Example 15, 4-(17β-Ethoxy-3-oxoestra-4,9-dien-11β-yl)benzaldehyde-1(E)-oxime]	143	17	a) 13%	b) 21%	–	–	–
